In patent publication US10814010B2, “FOXC2 inhibitor and methods of use thereof” (The Board of Regents of The University of Texas System, priority 2018, dated 2020):

What was measured:
[1] = molecular target: T1, endogenously expressed FOXC2 (Homo sapiens, UniProt Q99958); experiment: Drug affinity responsive target stability (DARTS) assay with MDA-MB-231 cell lysate; assay type: binding; details: 20 μM, Western blot
T1 construct: endogenous in cells; host or cells: MDA-MB-231
T1 sequence (Q99958 1-501): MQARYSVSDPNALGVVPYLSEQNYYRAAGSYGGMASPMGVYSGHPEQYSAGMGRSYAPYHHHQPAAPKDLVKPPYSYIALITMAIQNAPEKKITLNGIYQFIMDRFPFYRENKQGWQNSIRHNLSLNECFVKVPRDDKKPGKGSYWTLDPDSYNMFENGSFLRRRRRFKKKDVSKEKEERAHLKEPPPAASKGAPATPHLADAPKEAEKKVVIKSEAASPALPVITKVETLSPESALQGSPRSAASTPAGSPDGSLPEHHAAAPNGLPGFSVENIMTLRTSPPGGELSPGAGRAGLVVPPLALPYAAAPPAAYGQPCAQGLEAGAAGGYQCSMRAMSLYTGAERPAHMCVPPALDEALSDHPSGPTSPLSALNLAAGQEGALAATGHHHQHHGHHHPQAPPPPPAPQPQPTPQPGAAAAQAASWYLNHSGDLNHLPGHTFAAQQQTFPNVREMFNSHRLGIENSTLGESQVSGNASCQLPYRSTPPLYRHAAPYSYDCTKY
Method: As recombinant FOXC2 was used for the screening and the binding affinity determination, it was important to examine if MC-1-F2 binds to endogenously expressed FOXC2. To this end, a drug affinity responsive target stability assay (DARTS) was performed for MC-1-F2 and MC-C with cell lysate of MDA-MB-231 cells (FIG. 2B). In DARTS, the binding of a small molecule to its cellular target increases protease resistance of the target protein (Pai et al., 2015).
MDA-MB-231 cell lysate was harvested and incubated with 600 μL of Triton X-100 lysis buffer (50 mM Tris-HCl, 150 mM NaCl, 1 mM EDTA, 1% Triton X-100, pH 8.0) with protease inhibitor and 150 μL of phosphate inhibitor was added. Then frozen overnight followed by addition of 66.7 μL of 10×TNC buffer (1 M Tris-HCl, 5 M NaCl, 1 M CaCl2, pH 8.0) and gently mixed. The lysate was further split into 2 test tubes: Tube (1) 300 μL, Tube (2) 300 μL of cell lysate. The samples were incubated in desired concentration of compounds for 1 hour at room temperature and gently mixed. Once done the lysate of each condition was further split into 5 test tubes for each pronase condition. Pronase stock solution was thawed prior to use and 2 μL of each concentration were added to each tube and allowed to incubate for 20-30 minutes, followed by the addition of SDS loading buffer to stop pronase digestion followed by Western blot analysis.

MDA-MB-231 cells = experiment: Western blot of FOXC2 target/non-target genes, EMT, CSC and apoptosis markers in MDA-MB-231; assay type: cell-based; details: MDA-MB-231, 20 μM
Method: MC-1-F2's effect on FOXC2-mediated transcription was examined by measuring PDGFR-β expression levels, a downstream effector of FOXC2 (Hollier et al., 2013). […] (FIGS. 16A&B). To validate the specificity of the ligand to FOXC2, Western blot analysis was carried out on the non-target genes of FOXC2, p38 and GSK3P3.
Next, it was examined if FOXC2 inhibition by MC-1-F2 can affect EMT progression. […] It has been shown that inhibition of downstream or upstream targets of other EMT-associated transcription factors such as Snail, Slug and Twist leads to the decreased EMT progression, through the re-expression of E-cadherin (Bachelder et al., 2005; Ren et al., 2013). However, the impact of direct inhibition of EMT-associated transcription factors including FOXC2 on EMT progression has never been explored until now due to the lack of small molecule inhibitors directly targeting these transcription factors.
As EMT is known to bestow on cells CSC-like properties (Hollier et al., 2013), MC-1-F2 should be able to repress CSC characteristics in cells undergoing EMT. In order to examine the effects of MC-1-F2 on CSC properties, a Western blot analysis of MDA-MB-231 cell with and without treatment of MC-1-F2 was carried out, analyzing the CSC markers c-Myc, KLF4, and Nanog. […] In order to further evaluate the effect of MC-1-F2 on CSC properties and EMT progression, β-catenin nuclear localization was examined (FIG. 5D). β-catenin is involved in both EMT progression and acquisition of CSC properties (Kalluri & Weinberg, 2009, Schmalhofer et al., 2009). A repression of E-cadherin has shown to initiate a nuclear localization of β-catenin, leading to an initiation of several EMT signals (Schmalhofer et al., 2009). Moreover, nuclear localization β-catenin is the hallmark of an active Wnt pathway, a major pathway that contributes to CSC properties (Beck & Blanpain, 2013). […] Only nuclear fraction of β-catenin bestows CSC properties on cells.
50 μg of total protein per sample was incubated with 4× loading buffer at 100° C. for 5 min. Protein samples were then loaded into a polyacrylamide gel and subjected to SDS-PAGE. Resolved proteins were then transferred by a wet transfer method to a PVDF membrane at 100 V for 1 hour using a BioRad Mini Trans-Blot Electrophoresis Transfer Cell. Upon the completion of wet transfer, the membrane was then blocked with 5% (w/v) fat-free milk in 1× Tris-buffered saline/0.1% (v/v) Tween-20 (TBS-T) for at least 1 hour. Then incubated with the respective primary antibodies diluted in 5% BSA in 1×TBST at 4° C. overnight. The following day exposed to 1:1000 dilution of anti-mouse or anti-rabbit HRP-conjugated secondary antibodies in 5% (w/v) fat-free milk in 1×TBS-T for 1 hour at room temperature. The probed proteins were then detected for chemiluminescent signal using SuperSignal Chemiluminescent Substrate (PIERCE). Pierce antibodies: B-actin, and all other antibodies used are from cell signaling. MG132 treatment was added to cells (0.5 μM) for 1-hour incubation prior to compound treatment, no more than 24 hours total exceeded during MG132 incubation.

DU145 cells = experiment: Co-treatment MTT assay, DU145; details: constant ratio
[2] = 48 hours, non-target gene of FOXC2

## N=C(N)NCCCCNc1nc(Nc2ccc(Oc3ccccc3)cc2)nc(N2CCN(c3nc(N)nc(Nc4ccc(N5CCOCC5)cc4)n3)CC2)n1 [MC-1-F2]
[1]
  protection of FOXC2 from pronase-mediated proteolysis (DARTS): protection of FOXC2 from pronase-mediated proteolysis
[1]; pronase
  proteolysis of β-actin (DARTS): did not affect the proteolysis β-actin
MDA-MB-231 cells; 24 or 48 hours
  PDGFR-β expression levels: decrease in PDGFR-β expression levels
MDA-MB-231 cells; 48 hours
  E-cadherin expression: increase E-cadherin expression
  KLF4 expression (CSC marker): decrease
  MMP2 expression: downregulated the expression
  N-cadherin expression: downregulation of N-cadherin
  Nanog expression (CSC marker): no statistical difference
  Slug expression: decrease in other mesenchymal markers
  Snail protein level: did not affect the protein level
  Vimentin expression: decrease in other mesenchymal markers
  ZEB1 expression: downregulate ZEB1
  c-Myc expression (CSC marker): decrease
  cytosolic fraction of β-catenin: increase in the cytosolic fractions
  induction of apoptosis (Western blot of Bad, phospho-Bad, Bak, Bax): induction of an apoptosis
  nuclear fraction of β-catenin: decrease in the nuclear fraction
MDA-MB-231 cells; [2]
  GSK3β expression levels: no effect on the expression levels
  p38 expression levels: no effect on the expression levels
DU145 cells
  combination index with docetaxel (CompuSyn): negative combination index
DU145 cells; 24 hours
  combination effect with docetaxel: synergistic effects
  combination effect with enzalutamide (CompuSyn): only additive effects
